Assay results as given in patent US20240335431A1, “1-H-PYRROLO[2,3-c]PYRIDINE COMPOUNDS” (Acerta Pharma B.V., priority 2023, published 2024).

Legend:
hERG = hERG (Homo sapiens (Human), UniProt Q12809); test: hERG assay 1 (standard), SyncroPatch 384PE; assay type: cell-based; details: CHO cells, room temperature, up to 40 uM
How it was run: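 Automated patch clamp on hERG-expressing CHO-K1 cells at room temperature, +60/−40 mV protocol every 15 s. Six-point cumulative concentrations 139 nM to 40 uM (0.33% DMSO final); IC50 from one-site fit of % inhibition. Wells required ≥30 MegaOhm seal, current >0.2 nA, Z prime >0.4.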

[1] = Human liver microsomes (HLMs) intrinsic clearance assay; assay type: in vitro ADME; details: for microsomal CLint at 1 µM: pH 7.4, HLM CLint
[2] = Human hepatocyte intrinsic clearance assay; assay type: in vitro ADME; details: human hepatocytes
Experimental: Human hepatocytes (LiverPool™ 10-Donor Human hepatocytes (Mixed Gender, PEG-free, Product No. S01205, 5 million cells per vial) were obtained from BioreclamationIVT. DMSO was sourced from Solarbio S&T Co Ltd. Leibovitz's L-15 Medium, Williams' Medium E, GlutaMAX™-1 (100×), HEPES, DPBS (10×) and Human Recombinant Insulin Solution were purchased from Gibco. Isotonic Percoll Solution was purchased from GE Healthcare. Fetal Bovine Serum (FBS) was purchased from Corning.
10 mM dexamethasone stock solution was prepared by dissolving 3.9 mg dexamethasone in 1 mL of DMSO. An Isotonic Percoll Solution was prepared by dilution of Percoll with DPBS (10×). 15 mL of Isotonic Percoll Solution (90% Percoll/10% DPBS) was added to 31.25 mL William's E medium containing 500 mL of GlutaMAX™-1 (100×), 750 mL of 1M HEPES, 2.5 mL of 5% FBS, 50 mL of 4 mg/mL Human Recombinant Insulin Solution and 5 mL of the 10 mM dexamethasone stock.
2 mL of 10 mM DMSO stock solutions of test compound were added to 198 mL acetonitrile to produce 100 mmol/L concentration.
The human hepatocyte vial was thawed at 37° C. in a waterbath. Once thawed, contents were poured into a 50 mL conical tube and centrifuged at 100 g for 10 minutes. The thawing medium was poured out and 4 mL L-15 medium was added. The tube was gently shaken to resuspend the hepatocytes and cells were counted with an appropriate cell counter. 247.5 mL of the hepatocyte suspension was transferred into each well of the plate and pre-warmed at 600 rpm and 50° C. to enable the temperature to rise to 37° C.
2.5 mL of the […] test compound solution was added to initiate the reaction (final concentration […]) and incubated at 37° C. with shaking at 900 rpm. At 0.5, 5, 15, 30, 45, 60, 80, 100 and 120 minutes, 20 mL was taken into a quenching solution of acetonitrile containing internal standards. The mix was vortexed at 800 rpm for 2 minutes followed by centrifugation for 20 minutes at 4000 rpm at 4° C. 40 mL of supernatant was transferred into a 96 well analysis plate containing 160 mL of water in each well. The analysis plate was shaken at 100 rpm for 2 minutes prior to analysis by LC-MS/MS.
Peak areas were determined from extracted ion chromatograms. Percent parent remaining was calculated from peak area of test compound. The slope value, k, was determined by linear regression of the natural logarithm of percent parent remaining versus incubation time.
The in vitro intrinsic clearance (in vitro CLint in mL/min/10^6 cells) was determined from the slope value using the following equation: […]
where V is the incubation volume (0.25 mL) and N is the number of hepatocytes per well (0.25×10^6 cells).

[3] = human, microsomes, 1 µM, pH 7.4

Chain of hERG (Q12809 whole entry): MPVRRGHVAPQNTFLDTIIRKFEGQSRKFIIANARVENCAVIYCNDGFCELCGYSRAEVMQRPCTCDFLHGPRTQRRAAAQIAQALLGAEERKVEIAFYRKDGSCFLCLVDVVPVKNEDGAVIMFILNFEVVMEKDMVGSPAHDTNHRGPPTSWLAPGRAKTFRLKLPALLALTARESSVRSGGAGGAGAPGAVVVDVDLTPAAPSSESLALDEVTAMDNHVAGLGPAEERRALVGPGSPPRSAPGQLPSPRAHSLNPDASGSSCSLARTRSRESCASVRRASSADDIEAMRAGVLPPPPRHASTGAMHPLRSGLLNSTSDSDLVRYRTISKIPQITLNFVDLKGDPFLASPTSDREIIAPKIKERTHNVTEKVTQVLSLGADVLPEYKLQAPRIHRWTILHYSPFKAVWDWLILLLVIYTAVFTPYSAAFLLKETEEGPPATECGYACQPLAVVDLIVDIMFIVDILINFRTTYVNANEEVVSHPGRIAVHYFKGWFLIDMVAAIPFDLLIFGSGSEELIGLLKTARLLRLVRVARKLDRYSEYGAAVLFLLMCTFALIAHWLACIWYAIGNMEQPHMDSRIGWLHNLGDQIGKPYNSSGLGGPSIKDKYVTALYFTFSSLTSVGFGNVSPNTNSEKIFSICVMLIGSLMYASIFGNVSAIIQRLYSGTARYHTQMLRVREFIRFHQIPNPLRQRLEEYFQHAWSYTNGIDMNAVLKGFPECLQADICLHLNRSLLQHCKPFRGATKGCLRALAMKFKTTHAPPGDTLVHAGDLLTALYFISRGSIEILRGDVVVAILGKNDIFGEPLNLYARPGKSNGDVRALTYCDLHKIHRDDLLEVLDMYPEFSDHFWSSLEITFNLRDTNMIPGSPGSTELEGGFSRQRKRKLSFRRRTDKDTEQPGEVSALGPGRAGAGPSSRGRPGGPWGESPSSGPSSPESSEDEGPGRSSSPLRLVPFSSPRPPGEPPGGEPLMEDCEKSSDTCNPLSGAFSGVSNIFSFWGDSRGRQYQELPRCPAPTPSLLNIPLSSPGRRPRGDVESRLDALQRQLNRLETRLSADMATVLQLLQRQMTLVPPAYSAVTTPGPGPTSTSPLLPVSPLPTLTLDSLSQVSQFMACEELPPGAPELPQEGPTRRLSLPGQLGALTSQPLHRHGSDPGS

| HLM CLint [1, 3] [µL/min/mg] | HH CLint [2] [μl/min/1E6] | microsomal CLint at 1 µM ([1]; human, microsomes) [µL/min/mg] | Structure (SMILES) | IC50 (hERG) [µM] | HLM CLint ([1]; 1 mg/mL HLM, NADPH) [µL/min/mg] |
| --- | --- | --- | --- | --- | --- |
| 69 | <1.0 |  | CCN(C(=O)c1cc(F)ccc1-n1c(C)c(C(=O)C2CCN(C(=O)[C@H]3NC[C@@H]4C[C@@H]43)CC2)c2ccncc21)C(C)C (single isomer, unassigned) [Example 48-1] | > 40 |  |
| 55 | <1.0 |  | CCN(C(=O)c1cc(F)ccc1-n1c(C)c(C(=O)C2CCN(C(=O)[C@H]3NC[C@@H]4C[C@@H]43)CC2)c2ccncc21)C(C)C (single isomer, unassigned) [Example 48-2] | > 40 |  |
| 48 | <1.0 |  | CCN(C(=O)c1cc(F)ccc1-n1c(C)c(C(=O)C2CCN(C(=O)[C@@H]3CCC(C)(C)N3)CC2)c2ccncc21)C(C)C (single isomer, unassigned) [Example 50-2] | > 40 |  |
| 52 | 1.9 |  | Cc1c(C(=O)C2CCN(C(=O)[C@H]3NC[C@@H]4C[C@@H]43)CC2)c2ccncc2n1-c1ccc(F)cc1C(=O)N(CC(F)(F)F)C(C)C (single isomer, unassigned) [Example 51-2] | > 40 |  |
| 155 | 3.3 |  | Cc1c(C(=O)[C@@H]2CCN(C(=O)[C@H]3NC[C@@H]4C[C@@H]43)[C@@H](C)C2)c2ccncc2n1-c1ccc(F)cc1C(=O)N(CC(F)(F)F)C(C)C (single isomer, unassigned) [Example 53-3, 2-(3-((2R*,4S*)-1-((1S,2S,5R)-3-Azabicyclo[3.1.0]hexane-2-carbonyl)-2-methylpiperidine-4-carbonyl)-2-methyl-1H-pyrrolo[2,3-c]pyridin-1-yl)-5-fluoro-N-isopropyl-N-(2,2,2-trifluoroethyl)benzamide] | 31.4 |  |
|  | 4.4 | 125 | Cc1c(C(=O)C2CCN(C(=O)[C@H]3NC[C@@H]4C[C@@H]43)CC2)c2ccncc2n1-c1ccc(F)cc1C(=O)N(C(C)C)C(C)C (single isomer, unassigned) [Example 55-1] | > 40 |  |
| 194 | 4.2 |  | Cc1c(C(=O)C2CCN(C(=O)[C@H]3NC[C@@H]4C[C@@H]43)CC2)c2ccncc2n1-c1ccc(F)cc1C(=O)N(C(C)C)C(C)C (single isomer, unassigned) [Example 55-2] | > 40 |  |
|  | 3.2 | 84 | Cc1c(C(=O)C2CCN(C(=O)[C@H]3NC[C@@H]4C[C@@H]43)CC2)c2ccncc2n1-c1ccc(F)cc1C(=O)N(C(C)C)[C@H](C)C(F)(F)F (single isomer, unassigned) [Example 57-1] | > 38.5 |  |

| Structure (SMILES) | HLM CLint [1, 3] [µL/min/mg] | HH CLint [2] [μl/min/1E6] | microsomal CLint at 1 µM ([1]; human, microsomes) [µL/min/mg] | IC50 (hERG) [µM] | HLM CLint ([1]; 1 mg/mL HLM, NADPH) [µL/min/mg] |
| --- | --- | --- | --- | --- | --- |
| CCN(C(=O)c1cc(F)ccc1-n1c(C)c(C(=O)C2CCN(C(=O)[C@@H]3CCC4(CC4)N3)CC2)c2ccncc21)C(C)C (single isomer, unassigned) [Example 49-2] |  | 6.0 |  | > 38 | 127 |
| CCN(C(=O)c1cc(F)ccc1-n1c(C)c(C(=O)[C@@H]2CCN(C(=O)[C@@H]3CCC4(CC4)N3)[C@@H](C)C2)c2ccncc21)C(C)C (single isomer, unassigned) [Example 52-2, N-Ethyl-5-fluoro-N-isopropyl-2-(2-methyl-3-((2R*,4S*)-2-methyl-1-((S)-4-azaspiro[2.4]heptane-5-carbonyl)piperidine-4-carbonyl)-1H-pyrrolo[2,3-c]pyridin-1-yl)benzamide] |  | 3.5 |  | 14.2 | 150 |
| Cc1c(C(=O)C2CCN(C(=O)[C@@H]3CCC(C)(C)N3)CC2)c2ccncc2n1-c1ccc(F)cc1C(=O)N(C(C)C)C(C)C (single isomer, unassigned) [Example 56-1] |  | 6.9 | 133 | > 40 |  |
